Experimental data: ChEMBL document CHEMBL3227982, “Synthesis of some 4-substituted 8-amino-6-methoxyquinolines as potential antimalarials” (J Med Chem, 1979)
The source made the active and inactive calls. The rule behind the calls is not given here.

Key:
Plasmodium cynomolgi [1] = assay: Antimalarial activity against Plasmodium cynomolgi infected in rhesus monkey assessed as disease relapsing day at 0.5 mg/kg administered qd for 7 days via stomach tube; format: functional
Plasmodium berghei [2] = assay: Antimalarial activity against blood schizonticidal Plasmodium berghei infected in mouse assessed as change in host mean survival time at 40 mg/kg; format: functional
Plasmodium cynomolgi [3] = assay: Antimalarial activity against Plasmodium cynomolgi infected in rhesus monkey assessed as curative activity without disease relapses until 90 days at 0.375 mg/kg administered qd for 7 days via stomach tube; format: functional, organism-based; set-up: dose 0.375 mg/kg
Plasmodium cynomolgi [4] = assay: Antimalarial activity against Plasmodium cynomolgi infected in rhesus monkey assessed as disease relapsing day at 0.375 mg/kg administered qd for 7 days via stomach tube; format: functional
Plasmodium cynomolgi [5] = assay: Antimalarial activity against Plasmodium cynomolgi infected in rhesus monkey assessed as curative activity without disease relapses until 90 days at 0.75 mg/kg administered qd for 7 days via stomach tube; format: functional, organism-based; set-up: dose 0.75 mg/kg
Mus musculus [6] = assay: Toxicity in mouse infected with blood schizonticidal Plasmodium berghei assessed as mortality at 160 mg/kg measured on days 2 to 5 after infection; format: organism-based; set-up: dose 160 mg/kg; settings: in vivo
Plasmodium berghei [7] = assay: Antimalarial activity against blood schizonticidal Plasmodium berghei infected in mouse assessed as change in host mean survival time at 20 mg/kg; format: functional
Mus musculus [8] = assay: Toxicity in mouse infected with blood schizonticidal Plasmodium berghei assessed as mortality at 320 mg/kg measured on days 2 to 5 after infection; format: organism-based; set-up: dose 320 mg/kg; settings: in vivo
Mus musculus [9] = assay: Toxicity in mouse infected with blood schizonticidal Plasmodium berghei assessed as mortality at 640 mg/kg measured on days 2 to 5 after infection; format: organism-based; set-up: dose 640 mg/kg; settings: in vivo
Plasmodium berghei [10] = assay: Antimalarial activity against blood schizonticidal Plasmodium berghei infected in mouse assessed as change in host mean survival time at 80 mg/kg; format: functional
Plasmodium berghei [11] = assay: Antimalarial activity against blood schizonticidal Plasmodium berghei infected in mouse assessed as change in host mean survival time at 320 mg/kg; format: functional
Plasmodium berghei [12] = assay: Antimalarial activity against blood schizonticidal Plasmodium berghei infected in mouse assessed as change in host mean survival time at 160 mg/kg; format: functional
Plasmodium berghei [13] = assay: Antimalarial activity against blood schizonticidal Plasmodium berghei infected in mouse assessed as change in host mean survival time at 640 mg/kg; format: functional
[14] = system: Plasmodium berghei yoelii; assay: Antimalarial activity against sporozite stage of Plasmodium berghei yoelii infected in mouse assessed as curative activity at 160 mg/kg, po; format: functional, organism-based; set-up: dose 160 mg/kg
[15] = system: Plasmodium berghei yoelii; assay: Antimalarial activity against sporozite stage of Plasmodium berghei yoelii infected in mouse assessed as host survival at 10 to 40 mg/kg, po; format: functional, organism-based
[16] = system: Plasmodium berghei yoelii; assay: Antimalarial activity against sporozite stage of Plasmodium berghei yoelii infected in mouse assessed as host survival at 10 to 160 mg/kg, sc; format: functional, organism-based
Plasmodium cynomolgi [17] = assay: Antimalarial activity against Plasmodium cynomolgi infected in rhesus monkey assessed as disease relapsing day at 0.125 mg/kg administered qd for 7 days via stomach tube; format: functional
Plasmodium cynomolgi [18] = assay: Antimalarial activity against Plasmodium cynomolgi infected in rhesus monkey assessed as disease relapsing day at 1 mg/kg administered qd for 7 days via stomach tube; format: functional
Plasmodium cynomolgi [19] = assay: Antimalarial activity against Plasmodium cynomolgi infected in rhesus monkey assessed as disease relapsing day at 0.25 mg/kg administered qd for 7 days via stomach tube; format: functional
Plasmodium cynomolgi [20] = assay: Antimalarial activity against Plasmodium cynomolgi infected in rhesus monkey assessed as curative activity without disease relapses until 90 days at 1 mg/kg administered qd for 7 days via stomach tube; format: functional, organism-based; set-up: dose 1 mg/kg
Plasmodium cynomolgi [21] = assay: Antimalarial activity against Plasmodium cynomolgi infected in rhesus monkey assessed as curative activity without disease relapses until 90 days at 0.25 mg/kg administered qd for 7 days via stomach tube; format: functional, organism-based; set-up: dose 0.25 mg/kg
Plasmodium cynomolgi [22] = assay: Antimalarial activity against Plasmodium cynomolgi infected in rhesus monkey assessed as curative activity without disease relapses until 90 days at 0.125 mg/kg administered qd for 7 days via stomach tube; format: functional, organism-based; set-up: dose 0.125 mg/kg
Mus musculus [23] = assay: Toxicity in mouse infected with blood schizonticidal Plasmodium berghei assessed as mortality at 80 mg/kg measured on days 2 to 5 after infection; format: organism-based; set-up: dose 80 mg/kg; settings: in vivo

Row | Structure (SMILES) | Time (Plasmodium cynomolgi [1]) | MST (Plasmodium berghei [2]) | MST (Plasmodium berghei [7]) | Activity (Mus musculus [9]) | MST (Plasmodium berghei [10]) | MST (Plasmodium berghei [11]) | MST (Plasmodium berghei [12]) | MST (Plasmodium berghei [13]) | also measured
1 | COc1cc(NC(C)CCCN)c2ncccc2c1 (configuration not stated) [PRIMAQUINE] | 11 days | 5 days | 4 days | Toxic | 9.4 days | – | – | – | Activity (Plasmodium cynomolgi [3]): inactive; Time (Plasmodium cynomolgi [4]): 11 days; Activity (Plasmodium cynomolgi [5]): Active; Activity (Mus musculus [6]): Toxic; Activity (Mus musculus [8]): Toxic
2 | CCc1ccnc2c(NCCCCN)cc(OC)cc12 | – | 1.7 days | 0.9 days | Non-toxic | 2.1 days | 6.3 days | 2.9 days | 7.9 days | –
3 | COc1ccc(SCCc2ccnc3c(NC(C)CCCN)cc(OC)cc23)cc1 (configuration not stated) | – | 0.3 days | 0.1 days | – | 2.1 days | 6.1 days | 2.7 days | 7.5 days | Activity [14]: Active; Activity [15]: inactive; Activity [16]: inactive; Time (Plasmodium cynomolgi [17]): 9 days
4 | COc1cc(NC(C)CCCN)c2nccc(CCSc3ccc(F)cc3)c2c1 (configuration not stated) | 7 days | – | – | – | – | – | – | – | Time (Plasmodium cynomolgi [18]): 6 days; Time (Plasmodium cynomolgi [19]): 13 days; Activity (Plasmodium cynomolgi [20]): inactive; Activity (Plasmodium cynomolgi [21]): inactive
5 | CCc1ccnc2c(NC(C)CCCNC(C)C)cc(OC)cc12 (configuration not stated) | – | 2.3 days | -0.3 days | Toxic | 3.5 days | 10.5 days | 6.7 days | – | –
6 | CCc1ccnc2c(NC(C)CCCN(CC)CC)cc(OC)cc12 (configuration not stated) | – | 1.5 days | 1.1 days | Toxic | 3.7 days | – | 6.6 days | – | Activity (Mus musculus [8]): Toxic
7 | CCc1ccnc2c(NC(C)CCCN)cc(OC)cc12 (configuration not stated) | 28 days | 3.8 days | 2.8 days | – | 5.2 days | 11.5 days | 6.4 days | – | Time (Plasmodium cynomolgi [18]): 37 days; Time (Plasmodium cynomolgi [19]): 7 days; Activity (Plasmodium cynomolgi [22]): inactive; Activity (Plasmodium cynomolgi [21]): inactive
8 | CCc1ccnc2c(NCCCCCCN3CCN(CCO)CC3)cc(OC)cc12 | – | 0.7 days | 0.1 days | Toxic | 2.7 days | 4.1 days | 2.5 days | – | –
9 | COc1cc(NC(C)CCCN)c2nccc(CCSc3ccc(Cl)cc3)c2c1 (configuration not stated) | – | 3.3 days | 2.3 days | – | 6.3 days | 8.9 days | 7.7 days | 14.6 days | –
10 | CCc1ccnc2c(NCCCCCCN(CC)CC)cc(OC)cc12 | – | 1.7 days | 0.5 days | – | 3.3 days | 6.7 days | 5.5 days | 7.9 days | –
11 | C=Cc1ccnc2c(NC(C)CCCN)cc(OC)cc12 (configuration not stated) | 10 days | 1.7 days | 1.1 days | Toxic | 5.9 days | 7.7 days | 8.7 days | – | Time (Plasmodium cynomolgi [18]): 24 days; Time (Plasmodium cynomolgi [19]): 7 days; Activity (Mus musculus [8]): Toxic; Activity (Plasmodium cynomolgi [21]): inactive
12 | CCc1ccnc2c(NCCCCCCN)cc(OC)cc12 | – | 0.8 days | – | – | 4.8 days | – | – | – | Activity (Mus musculus [23]): Toxic; Activity (Mus musculus [6]): Toxic
